# Laboratory results from ChEMBL document CHEMBL4715696, “In vitro synergistic anticancer activity of the combination of T-type calcium channel blocker and chemotherapeutic agent in A549 cells” (Bioorg Med Chem Lett, 2016).
# Assays:
# [1] = Protein binding in human plasma at 10 uM after 4 hrs; format: ADME, cell-free; settings: read-out: PPB (converted)
# [2] = Protein binding in rat plasma at 10 uM after 4 hrs; format: ADME, cell-free; settings: read-out: PPB (converted)
# A549 [3] = test: Induction of cell cycle arrest in human A549 cells assessed as accumulation at G2/M phase at 5 uM after 24 hrs by flow cytometric analysis (reference value: 21.6%); format: functional
# A549 [4] = test: Induction of cell cycle arrest in human A549 cells assessed as accumulation at G1 phase at 5 uM after 24 hrs by flow cytometric analysis (reference value: 53.1%); format: functional
# A549 [5] = test: Induction of cell cycle arrest in human A549 cells assessed as accumulation at S phase at 5 uM after 24 hrs by flow cytometric analysis (reference value: 17.6%); format: functional
# A549 [6] = test: Induction of cell cycle arrest in human A549 cells assessed as accumulation at sub G1 phase at 5 uM after 24 hrs by flow cytometric analysis (reference value: 7.8%); format: functional
# [7] = target: Voltage-dependent T-type calcium channel subunit alpha-1G (Homo sapiens, UniProt O43497); test: Inhibition of T type calcium channel Cav3.1 (unknown origin) expressed in HEK293T cells by patch clamp method relative to control; format: cell-based
# A549 [8] = test: Induction of cell cycle arrest in human A549 cells assessed as accumulation at G1 phase at 5 uM after 48 hrs by flow cytometric analysis (reference value: 57.8 to 65.5%); format: functional
# A549 [9] = test: Cytotoxicity against human A549 cells assessed as reduction in cell viability by MTT assay; format: functional, cell-based
# A549 [10] = test: Induction of cell cycle arrest in human A549 cells assessed as accumulation at G2/M phase at 5 uM after 48 hrs by flow cytometric analysis (reference value: 22.1 to 25.4 %); format: functional
# A549 [11] = test: Induction of cell cycle arrest in human A549 cells assessed as accumulation at S phase at 5 uM after 48 hrs by flow cytometric analysis (reference value: 10.4 to 12%); format: functional
# A549 [12] = test: Induction of cell cycle arrest in human A549 cells assessed as accumulation at sub G1 phase at 5 uM after 48 hrs by flow cytometric analysis (reference value: 1.9 to 4.9%); format: functional
# A549 [13] = test: Induction of cell cycle arrest in human A549 cells assessed as accumulation at sub G1 phase at 10 uM after 48 hrs by flow cytometric analysis (reference value: 4.9%); format: functional
# A549 [14] = test: Induction of cell cycle arrest in human A549 cells assessed as accumulation at G1 phase at 10 uM after 48 hrs by flow cytometric analysis (reference value: 57.8%); format: functional
# A549 [15] = test: Induction of cell cycle arrest in human A549 cells assessed as accumulation at S phase at 10 uM after 24 hrs by flow cytometric analysis (reference value: 17.6%); format: functional
# A549 [16] = test: Induction of cell cycle arrest in human A549 cells assessed as accumulation at G2/M phase at 10 uM after 48 hrs by flow cytometric analysis (reference value: 25.4%); format: functional
# A549 [17] = test: Induction of cell cycle arrest in human A549 cells assessed as accumulation at G2/M phase at 10 uM after 24 hrs by flow cytometric analysis (reference value: 21.6%); format: functional
# A549 [18] = test: Induction of cell cycle arrest in human A549 cells assessed as accumulation at S phase at 10 uM after 48 hrs by flow cytometric analysis (reference value: 12%); format: functional
# A549 [19] = test: Induction of cell cycle arrest in human A549 cells assessed as accumulation at sub G1 phase at 10 uM after 24 hrs by flow cytometric analysis (reference value: 7.8%); format: functional
# A549 [20] = test: Induction of cell cycle arrest in human A549 cells assessed as accumulation at G1 phase at 10 uM after 24 hrs by flow cytometric analysis (reference value: 53.1%); format: functional
# [21] = Metabolic stability in human plasma assessed as parent compound remaining at 10 uM measured after 2 hrs; format: ADME, cell-free; settings: read-out: Stabilty
# [22] = Metabolic stability in rat plasma assessed as parent compound remaining at 10 uM measured after 2 hrs; format: ADME, cell-free; settings: read-out: Stabilty
# Sequence of Voltage-dependent T-type calcium channel subunit alpha-1G (O43497 whole entry): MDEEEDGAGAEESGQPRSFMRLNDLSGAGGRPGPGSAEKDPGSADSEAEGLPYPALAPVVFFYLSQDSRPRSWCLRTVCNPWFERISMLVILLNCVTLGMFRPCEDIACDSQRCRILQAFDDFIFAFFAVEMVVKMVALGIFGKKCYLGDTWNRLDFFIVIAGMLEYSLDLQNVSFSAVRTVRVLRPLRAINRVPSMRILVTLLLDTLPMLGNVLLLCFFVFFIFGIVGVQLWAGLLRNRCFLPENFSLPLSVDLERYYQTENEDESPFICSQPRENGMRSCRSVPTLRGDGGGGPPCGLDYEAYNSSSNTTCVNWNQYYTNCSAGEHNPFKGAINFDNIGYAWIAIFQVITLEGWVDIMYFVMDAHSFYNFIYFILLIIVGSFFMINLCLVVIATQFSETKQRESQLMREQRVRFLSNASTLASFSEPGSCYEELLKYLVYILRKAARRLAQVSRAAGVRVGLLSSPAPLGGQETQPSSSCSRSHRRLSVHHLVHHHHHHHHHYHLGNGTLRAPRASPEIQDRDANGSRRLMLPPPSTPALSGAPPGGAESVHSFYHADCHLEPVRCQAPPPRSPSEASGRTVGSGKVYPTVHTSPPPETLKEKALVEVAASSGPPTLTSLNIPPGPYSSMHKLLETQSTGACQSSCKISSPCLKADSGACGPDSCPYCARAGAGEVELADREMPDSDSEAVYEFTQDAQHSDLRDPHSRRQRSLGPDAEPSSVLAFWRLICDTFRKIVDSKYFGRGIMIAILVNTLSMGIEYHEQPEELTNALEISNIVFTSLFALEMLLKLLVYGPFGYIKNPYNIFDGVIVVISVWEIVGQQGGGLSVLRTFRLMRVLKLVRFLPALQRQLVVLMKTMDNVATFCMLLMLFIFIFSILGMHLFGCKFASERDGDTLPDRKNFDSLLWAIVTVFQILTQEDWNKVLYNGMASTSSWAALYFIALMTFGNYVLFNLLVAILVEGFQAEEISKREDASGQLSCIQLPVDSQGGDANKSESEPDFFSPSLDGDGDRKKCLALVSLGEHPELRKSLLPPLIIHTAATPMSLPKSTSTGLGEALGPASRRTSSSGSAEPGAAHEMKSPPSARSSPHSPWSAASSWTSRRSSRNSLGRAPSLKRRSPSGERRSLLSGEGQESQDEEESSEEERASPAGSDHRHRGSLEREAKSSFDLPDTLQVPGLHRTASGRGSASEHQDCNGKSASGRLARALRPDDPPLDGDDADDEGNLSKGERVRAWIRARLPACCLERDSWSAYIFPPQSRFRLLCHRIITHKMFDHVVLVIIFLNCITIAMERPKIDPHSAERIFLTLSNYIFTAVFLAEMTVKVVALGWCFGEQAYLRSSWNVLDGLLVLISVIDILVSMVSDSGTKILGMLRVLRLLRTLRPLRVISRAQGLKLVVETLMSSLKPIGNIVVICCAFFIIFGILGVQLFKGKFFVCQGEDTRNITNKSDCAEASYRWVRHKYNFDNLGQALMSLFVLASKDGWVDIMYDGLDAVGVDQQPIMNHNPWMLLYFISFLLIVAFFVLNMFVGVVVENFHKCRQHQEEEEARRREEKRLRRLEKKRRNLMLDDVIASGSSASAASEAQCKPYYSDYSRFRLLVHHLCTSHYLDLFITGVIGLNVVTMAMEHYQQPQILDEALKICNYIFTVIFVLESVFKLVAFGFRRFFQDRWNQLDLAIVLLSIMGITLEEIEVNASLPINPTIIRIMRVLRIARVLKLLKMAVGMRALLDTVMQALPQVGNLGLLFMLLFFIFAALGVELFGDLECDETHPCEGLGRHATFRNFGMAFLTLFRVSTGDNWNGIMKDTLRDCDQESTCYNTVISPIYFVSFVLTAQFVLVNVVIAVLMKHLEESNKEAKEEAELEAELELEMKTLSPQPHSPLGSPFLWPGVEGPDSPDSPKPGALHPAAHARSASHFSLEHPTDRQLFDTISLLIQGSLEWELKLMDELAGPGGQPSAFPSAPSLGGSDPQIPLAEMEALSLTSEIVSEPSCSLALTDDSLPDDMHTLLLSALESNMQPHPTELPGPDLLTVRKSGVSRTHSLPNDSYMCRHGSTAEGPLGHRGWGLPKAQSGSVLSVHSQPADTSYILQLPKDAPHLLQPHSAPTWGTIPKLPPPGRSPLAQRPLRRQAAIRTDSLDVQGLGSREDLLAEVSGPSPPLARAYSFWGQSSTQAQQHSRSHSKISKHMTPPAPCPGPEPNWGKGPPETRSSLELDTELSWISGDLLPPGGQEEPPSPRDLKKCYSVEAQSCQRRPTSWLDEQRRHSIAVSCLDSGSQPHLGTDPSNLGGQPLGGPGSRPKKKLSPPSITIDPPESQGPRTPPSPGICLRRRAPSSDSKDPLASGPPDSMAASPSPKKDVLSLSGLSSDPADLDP
smiles,measurement,setting,value
CC(=O)CC(c1ccccc1)c1c(O)c2ccccc2oc1=O (stereo not drawn) [WARFARIN],"fraction unbound at 4 h, 10 µM",[1],0.022
same,"fraction unbound at 4 h, 10 µM",[2],0.017
CN(C)CCCCCN(C)C1=Nc2ccccc2C(CC(=O)NCc2ccccc2)N1c1ccc(-c2ccccc2)cc1.Cl.Cl (stereo not drawn),Activity,A549 [3],2.2%
same,Activity,A549 [4],33.6%
same,Activity,A549 [5],8.8%
same,Activity,A549 [6],55.3%
same,IC50,[7],510 nM
same,Activity,A549 [8],1.2%
same,IC50,A549 [9],4.7 µM
same,Activity,A549 [10],0.1%
same,Activity,A549 [11],0.6%
same,Activity,A549 [12],98.1%
COCC(=O)O[C@]1(CCN(C)CCCc2nc3ccccc3[nH]2)CCc2cc(F)ccc2[C@@H]1C(C)C [MIBEFRADIL],Activity,A549 [13],10%
same,Activity,A549 [14],66.8%
same,Activity,A549 [15],10.9%
same,Activity,A549 [16],11.2%
same,Activity,A549 [17],13.4%
same,Activity,A549 [18],12%
same,IC50,A549 [9],31.4 µM
same,Activity,A549 [19],9.6%
same,Activity,A549 [20],66.1%
CCN(CC)CCOC(=O)c1ccc(N)cc1 [PROCAINE],"remaining at 2 h, 10 µM",[21],< 5%
same,"remaining at 2 h, 10 µM",[22],> 50%
